{
  "source": "patent US20130136712A1",
  "about": "“Malodor Control Compositions Comprising Malodor Control Polymers And Acid Catalysts And Methods Thereof” (priority 2011, published 2013)",
  "key": {"[1]": {"settings": "Table 1, Accord A; cited from earlier work"}, "[2]": {"assay": "Malodor control performance of HMPs, headspace SPME GC/MS of spiked test solution", "settings": "5 ml test solution spiked with 5 microliters; 2 hours room temperature, 30 minutes 35° C.; Control = 1.0", "method": "This example illustrates the malodor efficacy of the HMPs of the present invention. Isovaleric acid was chosen as a chemical surrogate for body odor while butylamine was used as a representative for amine-containing odors such as fish, pet urine, etc. Hydrophobic greasy cooking odors were represented by aldehydes such as nonanal.\nThe solutions are first equilibrated at room temperature for 2 hours, then incubated at 35° C. for 30 minutes. The headspace of each vial is finally sampled using a polydimethyl siloxane (PDMS) / Solid-Phase-Micro-Extraction (SPME) fiber and analyzed by GC/MS. The reductions in head space concentrations of odor molecules are measured and the data are normalized to Control.\nLower numbers denote high levels of malodor molecules present in the solution that are attributed to high malodor control efficacy of polymers."}, "[3]": {"assay": "Sulfur odor control performance of zinc polymer complexes, headspace GC/MS", "settings": "spiked with 3 parts-per-million; 2 hours room temperature, 30 minutes 35° C.; Control = 1.0", "method": "Butanethiol and dipropoyl sulfide were chosen as chemical surrogates for sulfur containing odors such as kitchen (onion/garlic), sewage, etc. These two molecules also enable the assessment of efficacy of polymer for sulfur molecules having different degrees of hydrophobicity (e.g more hydrophobic dipropylsulfide is usually harder to mitigate with hydrophilic technologies such as cyclodextrin).\n5 ml test solution was placed in a GC-MS vial and spiked with 3 parts-per-million of butanethiol or dipropylsulfide. The solutions were first equilibrated at room temperature for 2 hours, then incubated at 35° C. for 30 minutes. The headspace of each vial was finally sampled using a PDMS/SPME fiber and analyzed by GC/MS. The reductions in head space concentrations of sulfur molecules were measured and the data were normalized to Control (Table 9)."}, "[4]": {"test_system": "Soiled sponge samples (microbe reduction)", "assay": "Odor prevention performance, SOLARIS detection of acidic respiratory byproducts", "assay_type": "cell-based", "settings": "sponge treated 15 minutes, dried 12 hours; incubated 120 hrs at 37° C.", "method": "The Control formulation containing no malodor control polymer or zinc salt, and Formulations containing individual polymers, zinc salts, and zinc-polymer complexes are compared for their effect on odor prevention, through microbe reduction.\nSoiled sponge samples were cut into 1×6 cm strips and treated with the solutions (Table 10) for 15 minutes and dried at ambient temperature for 12 hours. The treated 1 cm strips were then cut into lx1 cm pieces, placed into SOLARIS scintillation vials, and 1 ml of MOPS buffer was added. The open vials were placed into outer SOLARIS vials containing thymolphthalein blue pH indicator and the vials were finally capped. The sealed vials were placed into a SOLARIS machine and incubated for 120 hrs at 37° C. Colorimetric measurements were conducted according to SOLARIS VIV protocol and the detection times of acidic respiratory byproducts were record (Table 10)."}, "[5]": {"settings": "benchmark for HMPs; cited from earlier work"}},
  "data": [
    {"molecule": "CC(C=O)Cc1ccc(C(C)C)cc1", "note": "(stereo not drawn) [Cymal, Alpha-methyl-p-isopropyl phenyl propyl aldehyde]", "values": [
      {"measurement": "VP(torr) @25° C.", "setting": "[1]", "value": 0.007, "unit": "torr"}
    ]},
    {"molecule": "C=CC(C)CCC=C(C)CCC=O", "note": "(stereo not shown) [Floral Super]", "values": [
      {"measurement": "VP(torr) @25° C.", "setting": "[1]", "value": 0.030, "unit": "torr"}
    ]},
    {"molecule": "CC(C)c1cccc(C(C)CC=O)c1", "note": "(stereo not shown) [Florhydral, 3-(3-Isopropyl-phenyl)-butyraldehyde]", "values": [
      {"measurement": "VP(torr) @25° C.", "setting": "[1]", "value": 0.008, "unit": "torr"}
    ]},
    {"molecule": "C=CCCCCCCCCC=O", "note": "[Intreleven Aldehyde, undec-10-en-1-al]", "values": [
      {"measurement": "VP(torr) @25° C.", "setting": "[1]", "value": 0.060, "unit": "torr"}
    ]},
    {"molecule": "COC1CC2CC1C1CC(C=O)CC21", "note": "(stereo not shown) [Scentenal, octahydro-5-methoxy-4,7-Methano-1H-indene-2-carboxaldehyde]", "values": [
      {"measurement": "VP(torr) @25° C.", "setting": "[1]", "value": 0.010, "unit": "torr"}
    ]},
    {"molecule": "[Cl-].[Cl-].[Zn+2]", "note": "[ZnCl2]", "values": [
      {"measurement": "Butylamine (Fish) head space concentration normalized to Control", "setting": "[2]", "value": 0.0},
      {"measurement": "Isovaleric Acid (Body) head space concentration normalized to Control", "setting": "[2]", "value": 1.0},
      {"measurement": "Nonanal (Grease) head space concentration normalized to Control", "setting": "[2]", "value": 1.0},
      {"measurement": "Butanethiol head space concentration normalized to Control", "setting": "[3]", "value": 0.8},
      {"measurement": "Dipropylsulfide head space concentration normalized to Control", "setting": "[3]", "value": 1.0},
      {"measurement": "Respiratory Byproducts Detection Time", "setting": "[4]", "value": 3.38, "unit": "h"}
    ]},
    {"molecule": "COc1ccccc1C=O", "note": "[o-anisaldehyde]", "values": [
      {"measurement": "VP(torr) @25° C.", "setting": "[1]", "value": 0.032, "unit": "torr"}
    ]},
    {"molecule": "hydroxypropyl modified beta cyclodextrin", "values": [
      {"measurement": "ambient temperature water solubility (benchmark)", "setting": "[5]", "value": "≥ 60", "unit": "g/100 ml"}
    ]}
  ]
}
